Measurements from ChEMBL document CHEMBL1201862, “PubChem BioAssay data set” (2004).
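Tested at 5 concentrations; 48 h exposure; 96-well plates; endpoints linearly interpolated, else capped at highest concentration. At the GI50, growth is halved.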 Activity calls are given as the source filed them. Cut-off read from the data, not from the text of the source: active = GI50 up to about 1.1 µM and inactive = higher.

What was measured:
Test in all cases: inhibition of tumour cell growth, NCI panel, 48 h
A498 = system: A498
BT-549 = system: BT-549
CAKI-1 = system: CAKI-1
CCRF-CEM = system: CCRF-CEM
DU-145 = system: DU-145
HCC 2998 = system: HCC 2998
HOP-92 = system: HOP-92
Hs-578T = system: Hs-578T
Malme-3M = system: Malme-3M
NCI-H226 = system: NCI-H226
NCI-H460 = system: NCI-H460
NCI/ADR-RES = system: NCI/ADR-RES
OVCAR-4 = system: OVCAR-4
OVCAR-5 = system: OVCAR-5
SF-295 = system: SF-295
SNB-75 = system: SNB-75
TK-10 = system: TK-10
UACC-62 = system: UACC-62
SK-MEL-2 = system: SK-MEL-2
T47D = system: T47D

Measured: GI50

Oc1c2c(nc3cc4c(cc13)OCO4)-c1ccccc1CCC2
inactive: A498 > 50 µM | BT-549 > 50 µM | CAKI-1 > 50 µM | CCRF-CEM > 50 µM | DU-145 > 50 µM | HCC 2998 > 50 µM | HOP-92 > 50 µM | Hs-578T 15.9 µM | Malme-3M > 50 µM | NCI-H226 > 50 µM | NCI-H460 > 50 µM | NCI/ADR-RES > 50 µM | OVCAR-4 30.2 µM | OVCAR-5 > 50 µM | SF-295 17.1 µM | SNB-75 > 50 µM | TK-10 > 50 µM | UACC-62 > 50 µM

CC(=O)OC1[C@H](n2ccnc2)C[C@H]2[C@@H]3CC=C4CC(N5CCCC5)CC[C@]4(C)[C@H]3CC[C@]12C (some centres undefined)
inactive: A498 32.7 µM | CAKI-1 43.5 µM | CCRF-CEM 25.6 µM | DU-145 > 100 µM | HOP-92 69.5 µM | Hs-578T > 100 µM | NCI-H226 40.1 µM | NCI-H460 6.71 µM | NCI/ADR-RES > 100 µM | OVCAR-4 87.3 µM | OVCAR-5 > 100 µM | SF-295 20.5 µM | SK-MEL-2 20.3 µM | SNB-75 > 100 µM | TK-10 88.1 µM | UACC-62 27.5 µM

O=[N+]([O-])c1c2nc3n(c2cc2c1nc1n2CCC1)CCC3
inactive: A498 > 100 µM | CAKI-1 > 100 µM | CCRF-CEM > 100 µM | DU-145 > 100 µM | HCC 2998 > 100 µM | HOP-92 > 100 µM | Hs-578T > 100 µM | Malme-3M 93.1 µM | NCI-H226 > 100 µM | NCI-H460 > 100 µM | NCI/ADR-RES > 100 µM | OVCAR-4 > 100 µM | OVCAR-5 > 100 µM | SF-295 > 100 µM | SNB-75 > 100 µM | T47D > 100 µM | TK-10 > 100 µM | UACC-62 > 100 µM

N#CC(c1ccccc1)c1cccc2ccccc12 (centres undefined)
inactive: A498 30.4 µM | CAKI-1 17.4 µM | DU-145 50.5 µM | HCC 2998 36.7 µM | Hs-578T 36.7 µM | Malme-3M 21.5 µM | NCI-H226 > 100 µM | NCI-H460 35.8 µM | NCI/ADR-RES 39.8 µM | OVCAR-4 47.5 µM | OVCAR-5 85.1 µM | SF-295 46.7 µM | SK-MEL-2 25.6 µM | SNB-75 > 100 µM | T47D 38.5 µM | TK-10 42.4 µM | UACC-62 52.2 µM

O=C(/N=C(\Nc1ccccc1)SCCS/C(=N/C(=O)c1cccs1)Nc1ccccc1)c1cccs1
inactive: A498 56.9 µM | CAKI-1 23.3 µM | CCRF-CEM 34.8 µM | HCC 2998 35.1 µM | HOP-92 6.37 µM | Malme-3M 91.6 µM | NCI-H226 55.8 µM | NCI-H460 31.6 µM | OVCAR-4 30.3 µM | OVCAR-5 > 100 µM | SF-295 52.7 µM | SK-MEL-2 94.6 µM | SNB-75 35.6 µM | TK-10 > 100 µM | UACC-62 47 µM

COc1cc([C@@H]2c3cc4c(cc3[C@@H](Nc3ccccc3C(=O)c3ccccc3)[C@H]3COC(=O)[C@H]23)OCO4)cc(OC)c1OC
active: A498 0.149 µM | CAKI-1 0.741 µM | CCRF-CEM 0.347 µM | Hs-578T 0.373 µM | Malme-3M 0.458 µM | NCI-H226 0.431 µM | NCI-H460 0.442 µM | NCI/ADR-RES 0.479 µM | OVCAR-5 0.885 µM | SF-295 0.376 µM | SNB-75 0.849 µM | UACC-62 0.362 µM
inactive: DU-145 1.82 µM | HCC 2998 2.36 µM | OVCAR-4 > 27.2 µM | SK-MEL-2 > 100 µM | T47D > 100 µM | TK-10 > 100 µM

COc1ccc(/C(Cl)=C(\C=O)c2ccc(OC)c(OC)c2)cc1OC
inactive: A498 > 94.4 µM | BT-549 > 100 µM | CAKI-1 > 100 µM | CCRF-CEM > 83.9 µM | DU-145 > 100 µM | HCC 2998 > 97.1 µM | HOP-92 > 100 µM | Hs-578T > 100 µM | Malme-3M 56.5 µM | NCI-H226 91.6 µM | NCI-H460 91.4 µM | NCI/ADR-RES > 91.4 µM | OVCAR-4 63.8 µM | OVCAR-5 > 45.6 µM | SF-295 30.1 µM | SK-MEL-2 94.4 µM | SNB-75 22.9 µM | TK-10 > 100 µM | UACC-62 > 100 µM

O=C1Nc2ccccc2N=CC1NC(=O)C(c1ccccc1)c1ccccc1 (centres undefined)
inactive: A498 > 100 µM | CAKI-1 > 100 µM | CCRF-CEM > 100 µM | HCC 2998 > 100 µM | HOP-92 32.5 µM | Malme-3M > 100 µM | NCI-H226 > 100 µM | NCI-H460 > 100 µM | OVCAR-4 > 100 µM | OVCAR-5 > 100 µM | SF-295 > 100 µM | SK-MEL-2 > 100 µM | SNB-75 > 100 µM | TK-10 > 100 µM | UACC-62 > 100 µM

COC(=O)C(Nc1ccc(OC)cc1)c1ccccc1 (centres undefined)
inactive: CAKI-1 > 100 µM | CCRF-CEM > 100 µM | DU-145 > 100 µM | Hs-578T > 100 µM | NCI-H460 > 100 µM | NCI/ADR-RES 74.1 µM | OVCAR-5 > 100 µM | SF-295 89.3 µM | SK-MEL-2 > 100 µM | T47D > 100 µM | TK-10 > 100 µM | UACC-62 > 100 µM

O=C1C(Br)=CC2(C=C1Br)CCNC1=C2C(=O)c2cccnc2C1=O
inactive: CAKI-1 17.4 µM | CCRF-CEM 6.22 µM | DU-145 11.4 µM | HCC 2998 18 µM | HOP-92 16 µM | Hs-578T 5.42 µM | Malme-3M 9.46 µM | NCI-H226 16.6 µM | NCI-H460 4.13 µM | NCI/ADR-RES 20.8 µM | OVCAR-4 17.2 µM | OVCAR-5 17.4 µM | SF-295 8.75 µM | SK-MEL-2 2.69 µM | SNB-75 10.7 µM | TK-10 19.8 µM | UACC-62 3.89 µM

Nc1ncnc2c1ncn2C1OC(CO)=CC1O (centres undefined)
inactive: A498 > 37.5 µM | CAKI-1 > 37.5 µM | CCRF-CEM > 37.5 µM | DU-145 > 37.5 µM | HCC 2998 > 37.5 µM | HOP-92 > 37.5 µM | Hs-578T > 37.5 µM | Malme-3M > 37.5 µM | NCI-H226 > 37.5 µM | NCI-H460 > 37.5 µM | NCI/ADR-RES > 37.5 µM | OVCAR-4 > 37.5 µM | OVCAR-5 > 37.5 µM | SF-295 > 37.5 µM | SK-MEL-2 > 37.5 µM | SNB-75 > 37.5 µM | T47D > 37.5 µM | TK-10 > 37.5 µM | UACC-62 > 37.5 µM

COc1ccc(C2CC(=O)CC(c3ccc(OC)cc3)C23C(=O)NC(=O)NC3=O)cc1 (centres undefined)
inactive: BT-549 32.7 µM | CAKI-1 33.1 µM | CCRF-CEM 32.7 µM | DU-145 48 µM | HCC 2998 20.3 µM | HOP-92 25.1 µM | Malme-3M 25.9 µM | NCI-H226 35.2 µM | NCI-H460 35.8 µM | NCI/ADR-RES 34.4 µM | OVCAR-4 67 µM | OVCAR-5 56.4 µM | SF-295 38 µM | SK-MEL-2 18.5 µM | SNB-75 25.8 µM | T47D > 10 µM | TK-10 89.5 µM | UACC-62 64.1 µM

COc1cc(/C=C2\C[C@H]3[C@@H]4CCc5cc(OCCN6CCCC6)ccc5[C@H]4CC[C@]3(C)C2=O)cc(OC)c1OC
inactive: A498 1.78 µM | BT-549 15.5 µM | CAKI-1 1.75 µM | DU-145 1.87 µM | HCC 2998 1.83 µM | NCI-H226 1.97 µM | NCI-H460 1.76 µM | NCI/ADR-RES 1.91 µM | OVCAR-4 1.6 µM | OVCAR-5 1.67 µM | SF-295 1.79 µM | SK-MEL-2 2.26 µM | T47D 1.95 µM | TK-10 2.53 µM | UACC-62 2.52 µM

CCn1c(=O)c2nc(SC)sc2n(-c2ccccc2)c1=O
inactive: CCRF-CEM > 100 µM | DU-145 > 100 µM | HCC 2998 > 100 µM | HOP-92 54.1 µM | Malme-3M > 100 µM | NCI-H226 > 100 µM | NCI-H460 > 100 µM | NCI/ADR-RES > 100 µM | OVCAR-4 > 100 µM | OVCAR-5 > 100 µM | SF-295 > 100 µM | SK-MEL-2 > 100 µM | SNB-75 > 100 µM | T47D > 100 µM | TK-10 > 100 µM

CCC[C@H]1C(=O)N=C(N)N1C(=O)OCc1ccccc1
inactive: A498 > 100 µM | BT-549 > 100 µM | CAKI-1 > 100 µM | HCC 2998 > 100 µM | Hs-578T > 100 µM | Malme-3M > 100 µM | NCI-H226 > 100 µM | NCI-H460 > 100 µM | NCI/ADR-RES > 100 µM | OVCAR-4 > 100 µM | OVCAR-5 > 100 µM | SF-295 > 100 µM | SK-MEL-2 > 100 µM | SNB-75 > 100 µM | TK-10 > 100 µM | UACC-62 > 100 µM

COc1cc(C=O)ccc1O [VANILLIN]
inactive: CAKI-1 > 100 µM | CCRF-CEM > 100 µM | DU-145 > 100 µM | HCC 2998 > 100 µM | HOP-92 > 100 µM | Hs-578T > 100 µM | Malme-3M > 100 µM | NCI-H226 > 100 µM | NCI-H460 > 100 µM | NCI/ADR-RES > 100 µM | OVCAR-4 > 100 µM | OVCAR-5 > 100 µM | SF-295 > 100 µM | SNB-75 > 100 µM | T47D > 100 µM | TK-10 > 100 µM
